Reference: patent publication US9890153B2, “Substituted 1H-pyrrolo [2, 3-b] pyridine and 1H-pyrazolo [3, 4-b] pyridine derivatives as salt inducible kinase 2 (SIK2) inhibitors” (Arrien Pharmaceuticals LLC, priority 2012, dated 2018)

Key:
Assay type in all cases: biochemical
[1] = target: T1, SIK3 (QSK) (SEQ ID NO: 24) (Homo sapiens, UniProt Q9Y2K2); assay: Protein kinase assay, SIK3; conditions: read-out: SIK3 (QSK) (SEQ ID NO: 24) kinase inhibition result
T1 construct: Reaction Biology Corporation (assay service, HotSpot panel)
T1 sequence (Q9Y2K2 whole entry): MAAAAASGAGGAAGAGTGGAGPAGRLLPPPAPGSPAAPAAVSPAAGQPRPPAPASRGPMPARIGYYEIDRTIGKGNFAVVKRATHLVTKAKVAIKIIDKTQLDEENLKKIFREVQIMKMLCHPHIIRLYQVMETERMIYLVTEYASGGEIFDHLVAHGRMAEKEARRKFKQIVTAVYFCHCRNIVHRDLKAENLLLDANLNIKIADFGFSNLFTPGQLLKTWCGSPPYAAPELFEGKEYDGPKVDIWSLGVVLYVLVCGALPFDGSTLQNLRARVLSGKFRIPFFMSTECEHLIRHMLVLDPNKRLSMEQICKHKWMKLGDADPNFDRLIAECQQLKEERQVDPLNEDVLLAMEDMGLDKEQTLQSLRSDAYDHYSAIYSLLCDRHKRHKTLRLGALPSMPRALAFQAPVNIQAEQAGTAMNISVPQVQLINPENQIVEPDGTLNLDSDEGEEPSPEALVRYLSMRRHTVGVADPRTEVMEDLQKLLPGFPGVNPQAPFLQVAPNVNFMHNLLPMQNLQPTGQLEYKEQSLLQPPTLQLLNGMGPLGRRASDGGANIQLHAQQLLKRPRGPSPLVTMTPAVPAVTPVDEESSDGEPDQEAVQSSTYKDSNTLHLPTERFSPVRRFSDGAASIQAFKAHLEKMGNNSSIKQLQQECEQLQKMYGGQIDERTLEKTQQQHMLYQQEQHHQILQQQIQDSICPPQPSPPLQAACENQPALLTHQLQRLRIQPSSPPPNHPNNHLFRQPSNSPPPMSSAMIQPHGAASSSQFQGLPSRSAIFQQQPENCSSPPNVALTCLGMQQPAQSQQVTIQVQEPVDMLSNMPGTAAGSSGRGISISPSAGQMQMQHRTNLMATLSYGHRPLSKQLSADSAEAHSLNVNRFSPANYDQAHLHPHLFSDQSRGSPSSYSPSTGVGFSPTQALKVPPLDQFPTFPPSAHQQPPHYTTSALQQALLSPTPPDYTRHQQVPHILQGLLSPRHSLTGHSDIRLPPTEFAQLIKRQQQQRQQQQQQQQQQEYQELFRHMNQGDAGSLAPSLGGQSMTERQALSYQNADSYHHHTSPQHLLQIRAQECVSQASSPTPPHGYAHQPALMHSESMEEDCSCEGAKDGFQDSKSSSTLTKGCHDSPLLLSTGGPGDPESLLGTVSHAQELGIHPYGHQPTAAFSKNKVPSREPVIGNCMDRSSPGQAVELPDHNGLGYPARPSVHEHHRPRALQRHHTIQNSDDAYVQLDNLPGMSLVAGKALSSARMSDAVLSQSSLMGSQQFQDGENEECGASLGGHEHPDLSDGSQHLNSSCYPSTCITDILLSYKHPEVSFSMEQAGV
Description: (§1) Briefly, specific kinase/substrate pairs along with required cofactors were prepared in reaction buffer; 20 mM Hepes (pH 7.5), 10 mMmgCl2, 1 mM EGTA, 0.02% Brij35, 0.02 mg/ml BSA, 0.1 mM Na3VO4, 2 mM DTT, 1% DMSO. Compounds were delivered into the reaction, followed ˜20 min later by addition of a mixture of ATP (Sigma) and 33P ATP (PerkinElmer) to a final concentration of 10 μM. […] IC50 values and curve fits were obtained using Prism (GraphPad Software). Kinome tree representations were prepared using Kinome Mapper (http://www.reactionbiology.com/apps/kinome/mapper/LaunchKinome.htm).

SIK1 (SEQ ID NO: 10) = target: T2, SIK1 (SEQ ID NO: 10) (Homo sapiens, UniProt P57059); assay: Protein kinase assay, SIK1; conditions: read-out: SIK1 (SEQ ID NO: 10) kinase inhibition result
T2 construct: Reaction Biology Corporation (assay service, HotSpot panel)
T2 sequence (P57059 whole entry): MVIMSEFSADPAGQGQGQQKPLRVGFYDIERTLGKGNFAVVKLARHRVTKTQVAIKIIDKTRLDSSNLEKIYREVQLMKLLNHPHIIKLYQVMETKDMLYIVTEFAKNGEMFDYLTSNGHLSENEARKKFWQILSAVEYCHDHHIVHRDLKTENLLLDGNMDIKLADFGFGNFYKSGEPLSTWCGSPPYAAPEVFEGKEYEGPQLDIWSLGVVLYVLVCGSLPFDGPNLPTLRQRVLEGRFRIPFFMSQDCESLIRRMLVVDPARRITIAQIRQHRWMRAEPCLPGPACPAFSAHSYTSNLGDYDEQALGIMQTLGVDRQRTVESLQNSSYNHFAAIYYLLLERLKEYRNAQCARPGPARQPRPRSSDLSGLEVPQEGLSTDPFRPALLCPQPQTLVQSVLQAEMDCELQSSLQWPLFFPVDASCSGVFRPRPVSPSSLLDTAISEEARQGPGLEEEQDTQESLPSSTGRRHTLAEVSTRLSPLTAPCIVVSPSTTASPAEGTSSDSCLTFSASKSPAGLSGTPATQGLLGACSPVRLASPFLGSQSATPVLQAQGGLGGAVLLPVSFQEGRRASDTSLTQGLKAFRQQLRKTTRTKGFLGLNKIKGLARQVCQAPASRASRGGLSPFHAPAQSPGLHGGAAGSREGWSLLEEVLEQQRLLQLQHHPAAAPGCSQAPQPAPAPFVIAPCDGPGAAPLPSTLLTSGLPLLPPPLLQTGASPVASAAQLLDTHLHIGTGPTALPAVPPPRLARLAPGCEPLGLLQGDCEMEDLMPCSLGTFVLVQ
Description: as §1

[2] = target: SIK2 (QIK) (SEQ ID NO: 11) (Homo sapiens, UniProt Q9H0K1); assay: SIK2 kinase assay (radiometric, 10 μM ATP); conditions: read-out: SIK2 (QIK) (SEQ ID NO: 11) kinase inhibition result
Sequence of SIK2 (QIK) (SEQ ID NO: 11) (Q9H0K1 whole entry): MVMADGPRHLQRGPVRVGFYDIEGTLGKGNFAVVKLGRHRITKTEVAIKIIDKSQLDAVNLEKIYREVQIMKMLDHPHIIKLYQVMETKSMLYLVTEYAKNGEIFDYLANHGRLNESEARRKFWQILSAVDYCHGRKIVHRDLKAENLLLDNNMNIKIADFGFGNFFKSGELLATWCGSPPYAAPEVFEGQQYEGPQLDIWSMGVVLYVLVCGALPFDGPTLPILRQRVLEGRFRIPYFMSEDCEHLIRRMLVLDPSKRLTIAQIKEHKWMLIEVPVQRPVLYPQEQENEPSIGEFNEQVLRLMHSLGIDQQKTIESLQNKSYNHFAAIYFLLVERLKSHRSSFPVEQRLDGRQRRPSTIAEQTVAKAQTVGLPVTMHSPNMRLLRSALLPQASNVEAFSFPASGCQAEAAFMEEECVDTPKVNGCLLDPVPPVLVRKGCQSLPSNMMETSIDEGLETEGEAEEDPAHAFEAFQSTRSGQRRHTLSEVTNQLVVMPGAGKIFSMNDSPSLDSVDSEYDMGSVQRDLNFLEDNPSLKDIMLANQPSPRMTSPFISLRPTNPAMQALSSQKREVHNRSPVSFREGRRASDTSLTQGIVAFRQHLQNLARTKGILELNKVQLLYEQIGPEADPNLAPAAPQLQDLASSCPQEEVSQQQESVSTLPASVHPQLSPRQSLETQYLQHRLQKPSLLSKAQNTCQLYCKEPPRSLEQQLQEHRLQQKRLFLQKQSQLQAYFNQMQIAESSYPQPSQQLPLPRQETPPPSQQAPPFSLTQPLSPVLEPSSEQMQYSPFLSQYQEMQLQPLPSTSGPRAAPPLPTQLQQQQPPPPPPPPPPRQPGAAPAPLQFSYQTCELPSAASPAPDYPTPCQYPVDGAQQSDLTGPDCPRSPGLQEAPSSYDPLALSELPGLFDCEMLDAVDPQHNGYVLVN
Description: Procedure: Enzyme was incubated with substrate peptide in reaction buffer in the presence and absence of test compounds or Staurosporine. All additions were done on ice, followed by the addition of ATP mix. Wells were uniformly mixed using an Eppendorff plate shaker and incubated at 30° C. for 20 min, and stopped by the addition of 5 μL of 3% phosphoric acid. Volume was increased to 100 μL by adding 0.8% phosphoric acid which was then transferred to PC filter mats (Millipore), pre-equilibrated with 70% ethanol and water. Plates were washed thrice with 100 μL 0.8% phosphoric acid and dried for an hour at 60° C.

Row | SMILES | IC50 [1] [µM] | IC50 (SIK1 (SEQ ID NO: 10)) [µM] | IC50 [2] [µM]
1 | CCS(=O)(=O)N1CCC(n2cc(-c3cnc4[nH]cc(-c5cc(F)cc(F)c5OC)c4c3)cn2)CC1 [Example 215, 3-(3,5-difluoro-2-methoxyphenyl)-5-(1-(1-(ethylsulfonyl)piperidin-4-yl)-1H-pyrazol-4-yl)-1H-pyrrolo[2,3-b]pyridine] | > 0.1 | > 1 | > 0.1
2 | COc1c(F)cc(F)cc1-c1c[nH]c2ncc(-c3cnn(C4CCN(CCO)CC4)c3)cc12 [Example 226, 2-(4-(4-(3-(3,5-difluoro-2-methoxyphenyl)-1H-pyrrolo[2,3-b]pyridin-5-yl)-1H-pyrazol-1-yl)piperidin-1-yl)ethanol] | < 0.1 | > 0.1 | < 0.1
3 | COc1c(F)cc(F)cc1-c1c[nH]c2ncc(-c3cccc(S(=O)(=O)N(C)C(C)(C)C)c3)cc12 [Example 181, N-(tert-butyl)-3-(3-(3,5-difluoro-2-methoxyphenyl)-1H-pyrrolo[2,3-b]pyridin-5-yl)-N-methylbenzenesulfonamide] | > 0.1 | > 1 | < 0.1
4 | COc1ccccc1-c1c[nH]c2ncc(-c3ccc(C)o3)cc12 [Example 115, 3-(2-methoxyphenyl)-5-(5-methylfuran-2-yl)-1H-pyrrolo[2,3-b]pyridine] | > 1 | > 0.1 | < 0.1
5 | COc1c(F)cc(F)cc1-c1c[nH]c2ncc(-c3cnn(S(=O)(=O)N4CCN(C)CC4)c3)cc12 [Example 211, 3-(3,5-difluoro-2-methoxyphenyl)-5-(1-((4-methylpiperazin-1-yl)sulfonyl)-1H-pyrazol-4-yl)-1H-pyrrolo[2,3-b]pyridine] | < 0.1 | > 0.1 | < 0.1
6 | OCCN1CCN(c2cnn(-c3cnc4[nH]cc(-c5ccc6c(c5)OC(F)(F)O6)c4c3)c2)CC1 [Example 225, 2-(4-(1-(3-(2,2-difluorobenzo[d][1,3]dioxol-5-yl)-1H-pyrrolo[2,3-b]pyridin-5-yl)-1H-pyrazol-4-yl)piperazin-1-yl)ethanol] | < 0.1 | > 0.1 | < 0.1
7 | COc1c(F)cc(F)cc1-c1c[nH]c2ncc(-c3cnc(N4CCOCC4)s3)cc12 [Example 179, 4-(5-(3-(3,5-difluoro-2-methoxyphenyl)-1H-pyrrolo[2,3-b]pyridin-5-yl)thiazol-2-yl)morpholine] | > 0.1 | > 1 | < 0.1
8 | FC1(F)Oc2cccc(-c3c[nH]c4ncc(-c5ccc(CN6CCCC6)s5)cc34)c2O1 [Example 197, 3-(2,2-difluorobenzo[d][1,3]dioxol-4-yl)-5-(5-(pyrrolidin-1-ylmethyl)thiophen-2-yl)-1H-pyrrolo[2,3-b]pyridine] | < 0.1 | > 0.1 | < 0.1
9 | COc1ccccc1-c1c[nH]c2nccc(-c3ccsc3)c12 [Example 17, 3-(2-methoxyphenyl)-4-(thiophen-3-yl)-1H-pyrrolo[2,3-b]pyridine] | > 0.1 | > 0.1 | > 0.1
10 | FC1(F)Oc2cccc(-c3c[nH]c4ncc(-c5ccc(CN6CCCCC6)s5)cc34)c2O1 [Example 198, 3-(2,2-difluorobenzo[d][1,3]dioxol-4-yl)-5-(5-(piperidin-1-ylmethyl)thiophen-2-yl)-1H-pyrrolo[2,3-b]pyridine] | < 0.1 | > 0.1 | < 0.1
11 | Oc1ccccc1-c1c[nH]c2ncc(-c3ccc(CN4CCOCC4)s3)cc12 [Example 192, 2-(5-(5-(morpholinomethyl)thiophen-2-yl)-1H-pyrrolo[2,3-b]pyridin-3-yl)phenol] | > 0.1 | > 0.1 | < 0.1
12 | COc1c(F)cccc1-c1c[nH]c2ncc(-c3cccc(S(=O)(=O)N4CCCC4)c3)cc12 [Example 182, 3-(3-fluoro-2-methoxyphenyl)-5-(3-(pyrrolidin-1-ylsulfonyl)phenyl)-1H-pyrrolo[2,3-b]pyridine] | > 0.1 | > 1 | < 0.1
13 | CN1CCN(S(=O)(=O)n2cc(-c3cnc4[nH]cc(-c5ccc6c(c5)OC(F)(F)O6)c4c3)cn2)CC1 [Example 219, 3-(2,2-difluorobenzo[d][1,3]dioxol-5-yl)-5-(1-((4-methylpiperazin-1-yl)sulfonyl)-1H-pyrazol-4-yl)-1H-pyrrolo[2,3-b]pyridine] | < 0.1 | > 0.1 | < 0.1
14 | CS(=O)(=O)N1CCN(c2cnn(-c3cnc4[nH]cc(-c5ccc6c(c5)OC(F)(F)O6)c4c3)c2)CC1 [Example 224, 3-(2,2-difluorobenzo[d][1,3]dioxol-5-yl)-5-(4-(4-(methylsulfonyl)piperazin-1-yl)-1H-pyrazol-1-yl)-1H-pyrrolo[2,3-b]pyridine] | < 0.1 | > 0.1 | < 0.1
15 | Cc1ccc(-c2cnc3[nH]cc(-c4cccc(F)c4O)c3c2)o1 [Example 128, 2-fluoro-6-(5-(5-methylfuran-2-yl)-1H-pyrrolo[2,3-b]pyridin-3-yl)phenol] | > 0.1 | > 0.1 | < 0.1
16 | FC1(F)Oc2ccc(-c3c[nH]c4ncc(-c5csc(N6CCOCC6)n5)cc34)cc2O1 [Example 205, 4-(4-(3-(2,2-difluorobenzo[d][1,3]dioxol-5-yl)-1H-pyrrolo[2,3-b]pyridin-5-yl)thiazol-2-yl)morpholine] | < 0.1 | > 0.1 | < 0.1
17 | COc1c(F)cccc1-c1c[nH]c2ncc(-c3cccc(S(=O)(=O)N(C)C(C)(C)C)c3)cc12 [Example 180] | > 0.1 | > 1 | < 0.1

Now from value to molecule:

Row | IC50 [1] [µM] | IC50 (SIK1 (SEQ ID NO: 10)) [µM] | IC50 [2] [µM] | SMILES
18 | < 0.1 | > 0.1 | < 0.1 | O=C(c1c(F)cccc1F)c1c[nH]c2ncc(-c3cnn(C4CCNCC4)c3)cc12 [Example 210, (2,6-difluorophenyl)(5-(1-(piperidin-4-yl)-1H-pyrazol-4-yl)-1H-pyrrolo[2,3-b]pyridin-3-yl)methanone]
19 | > 0.1 | > 1 | < 0.1 | COc1c(F)cccc1-c1c[nH]c2ncc(-c3ccc(CN4CCCC4)s3)cc12 [Example 174, 3-(3-fluoro-2-methoxyphenyl)-5-(5-(pyrrolidin-1-ylmethyl)thiophen-2-yl)-1H-pyrrolo[2,3-b]pyridine]
20 | > 1 | > 1 | < 0.1 | FC1(F)Oc2ccc(-c3c[nH]c4ncc(-c5ccc(CN6CCCC6)s5)cc34)cc2O1 [Example 203, 3-(2,2-difluorobenzo[d][1,3]dioxol-5-yl)-5-(5-(pyrrolidin-1-ylmethyl)thiophen-2-yl)-1H-pyrrolo[2,3-b]pyridine]
21 | > 1 | > 1 | > 1 | O=S(=O)(c1ccc(-c2c[nH]c3nccc(-c4ccsc4)c23)cc1)N1CCC1 [Example 96, 3-(4-(azetidin-1-ylsulfonyl)phenyl)-4-(thiophen-3-yl)-1H-pyrrolo[2,3-b]pyridine]
22 | > 0.1 | > 0.1 | < 0.1 | FC1(F)Oc2cccc(-c3c[nH]c4ncc(-c5csc(N6CCOCC6)n5)cc34)c2O1 [Example 199, 4-(4-(3-(2,2-difluorobenzo[d][1,3]dioxol-4-yl)-1H-pyrrolo[2,3-b]pyridin-5-yl)thiazol-2-yl)morpholine]
23 | < 0.1 | > 0.1 | < 0.1 | OCCN1CCC(n2cc(-c3cnc4[nH]cc(-c5ccc6c(c5)OC(F)(F)O6)c4c3)cn2)CC1 [Example 227, 2-(4-(4-(3-(2,2-difluorobenzo[d][1,3]dioxol-5-yl)-1H-pyrrolo[2,3-b]pyridin-5-yl)-1H-pyrazol-1-yl)piperidin-1-yl)ethanol]
24 | > 0.1 | > 0.1 | < 0.1 | FC1(F)CN(c2c[nH]c3ncc(-c4ccsc4)cc23)C1 [Example 136, 3-(3,3-difluoroazetidin-1-yl)-5-(thiophen-3-yl)-1H-pyrrolo[2,3-b]pyridine]
25 | > 1 | > 1 | > 0.1 | Fc1ccc(-c2n[nH]c3nccc(-c4ccsc4)c23)c(F)c1 [Example 2, 3-(2,4-difluorophenyl)-4-(thiophen-3-yl)-1H-pyrazolo[3,4-b]pyridine]
26 | < 0.1 | > 1 | > 0.1 | CCOc1ccccc1-c1n[nH]c2nccc(-c3ccsc3)c12 [Example 5, 3-(2-ethoxyphenyl)-4-(thiophen-3-yl)-1H-pyrazolo[3,4-b]pyridine]
27 | > 0.1 | > 1 | < 0.1 | COc1c(F)cc(F)cc1-c1c[nH]c2ncc(-c3ccc(CN4CCCCC4)s3)cc12 [Example 178, 3-(3,5-difluoro-2-methoxyphenyl)-5-(5-(piperidin-1-ylmethyl)thiophen-2-yl)-1H-pyrrolo[2,3-b]pyridine]
28 | > 1 | > 1 | > 0.1 | Cc1ccc(-c2ccnc3[nH]cc(-c4cccc(F)c4Cl)c23)o1 [Example 116, 3-(2-chloro-3-fluorophenyl)-4-(5-methylfuran-2-yl)-1H-pyrrolo[2,3-b]pyridine]
